Laboratory results published in paper PMC3479135, “Crystal Structures of Bovine CD1d Reveal Altered αGalCer Presentation and a Restricted A’ Pocket Unable to Bind Long-Chain Glycolipids” (PLoS ONE, 2012).

Target: T1, boCD1d (bovine CD1d ectodomain with boβ2M) (Bos taurus, UniProt A1L565)
T1 construct: heavy-chain ectodomain (α1-α3), endogenous leader replaced by boCD1b3 leader, C-terminal hexa-His tag, no Fc; co-expressed with bovine β2m in baculovirus/insect cells; non-covalent heterodimer; N-glycosylated at Asn20 and Asn42; with Beta-2-microglobulin
T1 sequence (A1L565 129-405): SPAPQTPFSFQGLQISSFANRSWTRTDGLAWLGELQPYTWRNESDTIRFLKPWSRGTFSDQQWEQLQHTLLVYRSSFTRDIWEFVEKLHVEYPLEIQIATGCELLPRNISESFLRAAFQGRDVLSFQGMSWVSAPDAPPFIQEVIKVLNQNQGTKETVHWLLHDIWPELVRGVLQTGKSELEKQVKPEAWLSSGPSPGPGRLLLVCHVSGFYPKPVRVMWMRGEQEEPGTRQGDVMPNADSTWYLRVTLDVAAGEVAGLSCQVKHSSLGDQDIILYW
T1 sequence (P01888 21-118 partner): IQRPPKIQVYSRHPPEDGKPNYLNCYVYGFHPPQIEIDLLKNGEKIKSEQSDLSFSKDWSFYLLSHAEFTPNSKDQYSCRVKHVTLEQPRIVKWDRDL
Assay: X-ray crystal structure, […] Å; native IEF gel shift
Format: binding
Settings: crystallised in 20% PEG 3350, 0.2 M sodium formate; IEF loading overnight at room temperature, 100 mM Tris-HCl pH 7, no Tween 20; A' and F' pockets

With `CCCCCCCCCCCCC/C=C/[C@@H](O)[C@H](CO[C@@H]1O[C@H](COS(=O)(=O)O)[C@H](O)[C@H](OS(=O)(=O)O)[C@H]1O)NC(=O)CCCCCCCCCCC` [compound 2, C12∶0-di-sulfatide] the “X-ray crystal structure, 2.9 Å; native IEF gel shift” value was “we crystallized boCD1d in complex with synthetic C12∶0-di-sulfatide (di-SLF)”.
